According to patent US11471462B2, “Compositions and methods for detecting and treating diabetes” (THE BROAD INSTITUTE, INC., priority 2016, dated 2022):

The compounds below were run on SLC16A11 (assay: CRISPR (SAM) transactivation assay, SLC16A11 expression in 293T cells). Settings: Cas9-based transactivators (SAM) targeted near variant.
Format: cell-based, human
Description: These experiments are based upon Cas9 based transactivators (SAM or synergistic activation mediators) as described in Konermann et al (Nature 517: 583-588, 2015). Similar experiments based on other types of transactivators that are more finely tuned to distal activation such as those described in Hilton et al. (Nature 33:510-518, 2015) could also be envisioned. Cas9 was used to target transactivators to sites near individual variants in the credible set. Their ability to activate SLC16A11 gene expression was assessed (Table 10).
Cell lines derived from HEK293-T cells were established by lentivirus infection resulting in stable integration of two components of the SAM system namely dCas9-VP64 and MS2-p65-HSF1. The resulting stable cell lines were then plated into 96 well plates and left overnight. The next day, cells were transfected with the guide RNAs (pHKO23), the final component of the SAM system. After an additional 48 hours, cells were harvested for gene expression analyses.
“rs77552976 (guide 1 GAAAGGGCTGCCGTGCTGTT; guide 2 CCTGGCTGGACCTAACAGCA; listed as DNA, chemistry not given here; listed as Homo sapiens)” was tested, and the “Increases SLC16A11 transcript levels in transactivator assay” value (“Increases SLC16A11 transcript levels” below) was “FALSE”.
With “rs2292351 (guide 1 AGCCTCTGGCTGCTCGCCCG; guide 2 CACCCCGGGCGAGCAGCCAG; listed as DNA, chemistry not given here; listed as Homo sapiens)” the “Increases SLC16A11 transcript levels” value was “TRUE”.
“rs73239895 (guide 1 ACTCCTGCCGGAGGTTCTCG; guide 2 AGGCCCCGAGAACCTCCGGC; listed as DNA, chemistry not given here; listed as Homo sapiens)” was tested, and the “Increases SLC16A11 transcript levels” value was “FALSE”.
For “TGGCTCTGGGTGCTGAAACG (chemistry not given here)”, the “Increases SLC16A11 transcript levels” value was “TRUE”.
In the case of “TCACGCGCGGCTTGCCGGAT (chemistry not given here)”, the “Increases SLC16A11 transcript levels” value is reported as “TRUE”.
“TGGCAGTCCCCGCGTCACGT (chemistry not given here)” was tested, and the “Increases SLC16A11 transcript levels” value was “TRUE”.
With “rs4630597 (guide 1 GGTGCCTCAGATACCTGGTT; guide 2 AACCAGGTATCTGAGGCACC; listed as DNA, chemistry not given here; listed as Homo sapiens)” the “Increases SLC16A11 transcript levels” value was “FALSE”.
With “rs193399 (guide 1 TAGAACCAGCTTCTAGGTTC; guide 2 TCCTTCCTGAACCTAGAAGC; listed as DNA, chemistry not given here; listed as Homo sapiens)” the “Increases SLC16A11 transcript levels” value was “FALSE”.
For “rs312457 (guide 1 TGATGAAACCTGGCCGGGCA; guide 2 GTGAGCCACCGTGCCCGGCC; listed as DNA, chemistry not given here; listed as Homo sapiens)”, the “Increases SLC16A11 transcript levels” value was “FALSE”.
In the case of “GCGGGATTTAGGCATTGTTG (chemistry not given here)”, the “Increases SLC16A11 transcript levels” value is reported as “TRUE”.
For “rs191133 (guide 1 TGAAAGTAAGTCAATCATGG; guide 2 ATGATTGACTTACTTTCATC; listed as DNA, chemistry not given here; listed as Homo sapiens)”, the “Increases SLC16A11 transcript levels” value was “FALSE”.
With “rs17203120 (guide 1 CTTATTTGATTTTATCTCAA; guide 2 TTATTTGATTTTATCTCAAA; listed as DNA, chemistry not given here; listed as Homo sapiens)” the “Increases SLC16A11 transcript levels” value was “FALSE”.
For “GGCTGCGTGTTAGTGGCTTC (chemistry not given here)”, the “Increases SLC16A11 transcript levels” value was “TRUE”.
“ACGGAAACTGGCGCGCTCCA (chemistry not given here)” was tested, and the “Increases SLC16A11 transcript levels” value was “TRUE”.

What follows are compounds tested on SLC16A11 (assay: Compound treatment, SLC16A11 expression by ddPCR in SNU761 cells). Settings: SNU761 cells; same doses and treatment times as in the LINCS dataset.
Format: cell-based, human
Method: A small number of the compounds that made the strongest positive connections to the SLC16A11 gene expression signature were selected and tested. […] Methotrexate was also included, which had been annotated as a dihydrofolate reductase inhibitor. SNU761 cells (derived from a human hepatocellular carcinoma) and NCIH716 cells (derived from a human cecum adenocarcinoma), which both express SLC16A11, were treated with the compounds. The same compound concentrations and treatment times were used as in the LINCS dataset experiments. […] For normalization, a different housekeeper gene, HPRT1, was used and obtained similar results with the mTOR inhibitors (FIGS. 14A and 14B).
From the total list of compounds, 59 readily available compounds were selected from the 79 compounds with the largest connectivity scores to the query signature and 20 middle compounds with connectivity scores centered on 0 (FIG. 15A) and then treated SNU761 cells at the same doses and treatment times as were used in the LINCS dataset. It was expected that the top compounds would be enriched for compounds that increased SLC16A11 expression. […] The results were aligned with the expectations (FIG. 15B). Hierarchical clustering of the SLC16 expression profiles generated by the compound treatments are shown by the heat map in FIG. 15C.
SNU761 (human hepatocellular carcinoma) and NCIH716 (human cecum adenocarcinoma) were cultured in RPMI Medium 1640 supplemented with 10% Fetal Bovine Serum (FBS), 100 μg/ml Streptomycin and 100 U/ml Penicillin. Cells were grown in a humidified CO2 incubator, at 37° C.
For the unbiased approach taken to investigate the compounds that connected to the SLC16A11 gene expression signature, compounds were obtained from compound management at the Broad Institute.
SNU761 and NCIH716 cells were plated into 96 well plates at a density of 20,000 cells per well. Hepatocytes were plated into collagen coated 96 well plates (Corning, 354408) at a density of 50,000 cells per well. After 24 hours, cells were treated with compounds at a final concentration of 10 μM or vehicle control for the appropriate amount of time.
At the time of collection, cells in 96 well plates were lysed by directly adding 50 μL of RLT buffer (Qiagen). 75 μL of AMPure XP beads, diluted by a factor of 5 in polyethylene glycol, were then added to bind nucleic acids. One wash with polyethylene glycol was then performed. DNase treatment (Qiagen) was carried out according to the manufacturer's protocol in a final volume of 50 μL. 100 μL of polyethylene glycol was added after the DNase treatment to crowd nucleic acids back onto the beads. Two washes with 80% ethanol were performed and residual ethanol was removed. RNA was then eluted in water.
RNA was DNase treated and converted into cDNA using the High-Capacity RNA-to-cDNA kit (Thermo Fisher Scientific). The following FAM-labeled TaqMan Real-Time PCR assays (Thermo Fisher Scientific) were used to quantify gene expression: SLC16A11 (Hs00601062_g1), SLC16A13 (Hs00416832_m1), SLC16A1 (Hs01560299_m1). The VIC-labeled TaqMan Real-Time assays TBP (Hs00427620_m1) or HPRT1 (Hs02800695_m1) were used for normalization. Droplets were generated and analyzed using a QX200 Droplet Generator and Reader system (BioRad). Data was extracted using QuantaSoft (BioRad) and analyzed using Microsoft Excel.
`Oc1cccc(-c2nc(N3CCOCC3)c3oc4ncccc4c3n2)c1` [PI-103, 3-(6-morpholin-4-yl-8-oxa-3,5,10-triazatricyclo[7.4.0.0^2,7]trideca-1 (9),2(7),3,5,10,12-hexaen-4-yl)phenol, reference compound] was tested, and the “avg_fc (SLC16A11 expression, compound treated vs DMSO treated cells)” value was 2.453.
For `COc1ccc2c(c1OC)N=C(NC(=O)c1cccnc1)N1CCN=C21` [PIK-90], the “avg_fc (SLC16A11 expression, compound treated vs DMSO treated cells)” value was 1.487.
bisindolylmaleimide was tested, and the “avg_fc (SLC16A11 expression, compound treated vs DMSO treated cells)” value was 0.4265.
In the case of `OC1CCC(Nc2ncc3nc(Nc4c(F)cc(F)cc4F)n([C@@H]4CCOC4)c3n2)CC1` (stereo partly shown) [CG-930], the “avg_fc (SLC16A11 expression, compound treated vs DMSO treated cells)” value is reported as 1.337.
For `N#CC(=C(N)Sc1ccc(N)cc1)c1ccccc1C(F)(F)F` [MEK1-2-inhibitor], the “avg_fc (SLC16A11 expression, compound treated vs DMSO treated cells)” value was 1.414.
`COc1ccc(-c2cc(=O)c3c(OC)c(OC)c(OC)c(OC)c3o2)cc1OC` [nobiletin] was tested, and the “avg_fc (SLC16A11 expression, compound treated vs DMSO treated cells)” value was 1.129.
With `O=C1CC[C@@]2(O)[C@H]3Cc4ccc(O)c5c4[C@@]2(CCN3CC2CC2)[C@H]1O5` [naltrexone] the “avg_fc (SLC16A11 expression, compound treated vs DMSO treated cells)” value was 1.183.
For `COc1ccc(CNC(=O)/C=C/c2ccc3[nH]cc(CCN(C)C)c3c2)cc1` [GR-46611], the “avg_fc (SLC16A11 expression, compound treated vs DMSO treated cells)” value was 0.6609.
With `OCCOCCN1CCN(C2=Nc3ccccc3Sc3ccccc32)CC1` [quetiapine] the “avg_fc (SLC16A11 expression, compound treated vs DMSO treated cells)” value was 1.019.
`COc1cc(Nc2ncc(F)c(Nc3ccc4c(n3)N(COP(=O)(O)O)C(=O)C(C)(C)O4)n2)cc(OC)c1OC` [fostamatinib] was tested, and the “avg_fc (SLC16A11 expression, compound treated vs DMSO treated cells)” value was 3.274.
In the case of `C[C@H]1O[C@@H](O[C@H]2[C@@H](O)C[C@H](O[C@H]3[C@@H](O)C[C@H](O[C@H]4CC[C@@]5(C)[C@H](CC[C@@H]6[C@@H]5CC[C@]5(C)[C@@H](C7=CC(=O)OC7)CC[C@]65O)C4)O[C@@H]3C)O[C@@H]2C)C[C@H](O)[C@@H]1O` [digitoxin], the “avg_fc (SLC16A11 expression, compound treated vs DMSO treated cells)” value is reported as 1.375.
For `O=C(NC[C@H](O)CO)c1ccncc1Nc1ccc(I)cc1F` [AS-703026], the “avg_fc (SLC16A11 expression, compound treated vs DMSO treated cells)” value was 1.68.
`Nc1ccn([C@H]2CC[C@@H](CO)O2)c(=O)n1` [zalcitabine] was tested, and the “avg_fc (SLC16A11 expression, compound treated vs DMSO treated cells)” value was 1.01.
`CO[C@H]1C[C@@H]2CC[C@@H](C)[C@@](O)(O2)C(=O)C(=O)N2CCCC[C@H]2C(=O)O[C@H]([C@H](C)C[C@@H]2CC[C@@H](OC(=O)C(C)(CO)CO)[C@H](OC)C2)CC(=O)[C@H](C)/C=C(\C)[C@@H](O)[C@@H](OC)C(=O)[C@H](C)C[C@H](C)/C=C/C=C/C=C/1C` [temsirolimus] was tested, and the “avg_fc (SLC16A11 expression, compound treated vs DMSO treated cells)” value was 1.372.
For `O=C(NC(COc1ccc2[nH]c(=O)[nH]c2c1)c1ccccc1)c1cccn(Cc2ccc(F)c(F)c2)c1=O` (stereo not shown) [KIN001-244], the “avg_fc (SLC16A11 expression, compound treated vs DMSO treated cells)” value was 1.084.
`Nc1ccc(-c2cccc3c(=O)cc(N4CCOCC4)oc23)cc1` [PI-828] was tested, and the “avg_fc (SLC16A11 expression, compound treated vs DMSO treated cells)” value was 1.336.
`NC(=O)Nc1cc(-c2cccc(F)c2)sc1C(=O)N[C@H]1CCCNC1` [AZD-7762, 3-[(aminocarbonyl)amino]-5-(3-fluorophenyl)-N-(3S)-3-piperidinyl-2-thiophenecarboxamide, reference compound] was tested, and the “avg_fc (SLC16A11 expression, compound treated vs DMSO treated cells)” value was 4.924.
With `C[C@H](NC(=O)Cc1cc(F)cc(F)c1)C(=O)N[C@H](C(=O)OC(C)(C)C)c1ccccc1` [DAPT-GSI-IX] the “avg_fc (SLC16A11 expression, compound treated vs DMSO treated cells)” value was 1.286.
With `NC1(c2ccc(-c3nc4ccn5c(=O)[nH]nc5c4cc3-c3ccccc3)cc2)CCC1` [MK-2206] the “avg_fc (SLC16A11 expression, compound treated vs DMSO treated cells)” value was 0.6972.
With `Cc1nc2c(c(=O)[nH]1)CSCC2` [DR-2313] the “avg_fc (SLC16A11 expression, compound treated vs DMSO treated cells)” value was 1.127.
For `COc1ccccc1OCC(O)CN1CCN(CC(=O)Nc2c(C)cccc2C)CC1` (stereo not shown) [ranolazine], the “avg_fc (SLC16A11 expression, compound treated vs DMSO treated cells)” value was 0.7654.
With `CC(C)COCC(CN(Cc1ccccc1)c1ccccc1)N1CCCC1` (stereo not shown) [bepridil] the “avg_fc (SLC16A11 expression, compound treated vs DMSO treated cells)” value was 0.8545.
With `CN1CCN(C2=Nc3cc(Cl)ccc3Nc3ccccc32)CC1` [clozapine] the “avg_fc (SLC16A11 expression, compound treated vs DMSO treated cells)” value was 0.9466.
In the case of `COC(=O)c1c(-c2cc(OC)c(OC)c(OC)c2)c2ccnc(OCc3ncccn3)c2c(=O)n1Cc1ccnc(C)c1` [T-0156], the “avg_fc (SLC16A11 expression, compound treated vs DMSO treated cells)” value is reported as 0.8378.
With `N#CC(C#N)=C(N)/C(C#N)=C/c1ccc(O)cc1` [tyrphostin-AG-112] the “avg_fc (SLC16A11 expression, compound treated vs DMSO treated cells)” value was 0.7594.

Same assay, conditions: SNU761 cells; unbiased test of 59 top and 20 middle LINCS compounds; LINCS doses and times
With `NC(=O)Nc1cc(-c2cccc(F)c2)sc1C(=O)N[C@H]1CCCNC1` [AZD-7762, 3-[(aminocarbonyl)amino]-5-(3-fluorophenyl)-N-(3S)-3-piperidinyl-2-thiophenecarboxamide, reference compound] the “increase in SLC16A11 expression, compound treated compared to DMSO treated cells” value was “about 5 fold”.
